Assay results published in patent US20250320471A1, “Method for Producing Compounds, Method for Producing Compound Library, Compound Library, and Screening Method” (The University of Tokyo, priority 2021, published 2025).
Where “and” joins values, the source holds several entries; their conditions need not be identical. Identical values can stand only once. Ends that are not written are not given here. Peptide text beside a SMILES is read from it.

What was measured:
Fnq26 = biological target: T1, Fnq26 (Streptomyces virginiae, UniProt A2AXG5); details: Aromatic C10 O-prenylation; cited from earlier work
T1 sequence (A2AXG5 1-300): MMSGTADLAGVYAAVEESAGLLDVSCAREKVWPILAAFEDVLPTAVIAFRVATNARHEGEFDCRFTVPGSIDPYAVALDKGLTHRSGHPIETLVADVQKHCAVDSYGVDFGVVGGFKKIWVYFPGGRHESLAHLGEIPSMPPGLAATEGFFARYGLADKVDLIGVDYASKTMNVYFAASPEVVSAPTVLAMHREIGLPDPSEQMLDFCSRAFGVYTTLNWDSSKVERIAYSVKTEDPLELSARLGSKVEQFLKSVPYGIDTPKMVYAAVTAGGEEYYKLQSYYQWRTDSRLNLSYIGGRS

LimF [1] = test: His-prenylation of low molecular weight compounds, peptides and proteins by LimF; assay type: biochemical, Limnothrix sp. CACIAM 69d; details: 100 μM LimF, 2 mM GPP, 20 hours; for His-prenylation efficiency (LC/MS): standard conditions
Text: Next, various low molecular weight compounds, peptides, and proteins, including various compounds that have already been approved as pharmaceuticals, were subjected to His-prenylation facilitated by LimF.

PagF = details: Tyr C5 O-prenylation; cited from earlier work
PirF = details: Tyr C10 O-prenylation; cited from earlier work
LimF [2] = test: Steady-state kinetics of prenylation facilitated by LimF (wild type); assay type: biochemical, Limnothrix sp. CACIAM 69d; details: Tyr-prenylation (C10 O-), 5 μM LimF, 16° C.
Description: Under optimal conditions, the steady-state kinetic parameters of the prenylation reaction of bcLimE2 facilitated by LimF were measured by the methods described below.
The concentration dependence of GPP and MgCl2 in bcLimE2 prenylation reactions facilitated by LimF was measured in reaction systems containing 1 μM LimF, 1 mM or a suitably modified concentration of GPP, 50 mM HEPES pH 7.2, 0.4 mM substrate, 1 mM DTT, and 40 mM or a suitably modified concentration of MgCl2. A reaction solution containing components other than GPP was prepared and preheated to 25° C., and the reaction was then started by adding GPP. After incubating at 25° C., the reaction was stopped at each point and analyzed by LC-MS. Next, the initial rate was calculated as the slope of increase in the amount of prenylation product produced in the linear region. Three separate reactions were carried out under each condition and the mean and standard deviation of the results were used for the analysis.
For GPP concentration dependence and peptide substrate concentration dependence, the kinetic parameters were estimated by fitting the initial rate and GPP substrate concentration or peptide substrate concentration to the Michaelis-Menten model in Graphpad Prism 8.4.2 (GraphPad Prism Software Inc., San Diego, California) software.
Kinetic parameters of the His-prenylation reaction facilitated by LimF were determined based on reactions under optimal conditions using substrates of different concentrations. For the Tyr-prenylation described below, the kinetic parameters were measured under the same conditions except that LimF was set to 5 μM and the reaction temperature was set to 16° C. In order to estimate the kinetic parameters, the initial rate and substrate concentration were fitted to the Michaelis-Menten model in Graphpad Prism 8.4.2 software.
In order to further evaluate the two different prenylation modes by LimF, two teMPs (teR6-H5A/Y7H and teR6-H5A) that undergo efficient His-prenylation and Tyr-prenylation, respectively, were designed and chemically synthesized. Kinetic analysis was carried out according to the above method using these peptides.

bcLimE2 = test: Prenyl group donor tolerance of LimF variants (conversion of bcLimE2); assay type: biochemical; set-up: key to Final Conversion Efficiency: “n.r.” indicates that the reaction did not proceed; details: substrate bcLimE2
Description: An attempt was made to change the selectivity of LimF with respect to prenyl group donors examined in “2. Evaluation of Enzymatic Activity of LimF” by introducing a mutation into LimF. […], illustrated in FIG. 7(a), was used as the substrate.
For the assay of LimF variants, 100 μM bcLimE2 was incubated individually at a 5 μL scale with 20 to 100 μM LimF variants under conditions of 1 mM GPP or DMAPP, 50 mM HEPES (pH 7.2), 40 mM MgCl2, 1 mM DTT, and DMSO (4%, v/v). After incubating for 16 hours at 25° C., the reaction was stopped by adding 9 times the amount (45 μL) of a 1% TFA aqueous solution. Next, the mixture was incubated on ice for 10 minutes, a precipitate was separated by centrifugation at 4° C. (15300×g, 10 minutes), and 1 μL of supernatant was subjected to LC-MS analysis.
An amino acid forming a small pocket that stores a prenyl group in the crystal structure was selected for the introduction site of the LimF mutation. Specifically, Gly at position 224 was selected, and this was substituted with a larger amino acid. […] This alignment supports the hypothesis that the 224th Gly contributes to prenyl group selectivity.
For the assay of LimF variants, 100 μM bcLimE2 was incubated individually at a […] with 20 to 100 μM LimF variants under conditions of 1 mM GPP or FPP, 50 mM HEPES (pH 7.2), 5 mM MgCl2, 1 mM DTT, and DMSO (4%, v/v). After incubating for 16 hours at 25° C., the reaction was stopped by adding 9 times the amount ([…]) of a 1% TFA aqueous solution. Next, the mixture was incubated on ice for 10 minutes, a precipitate was separated by centrifugation at 4° C. (15300×g, 10 minutes), and 1 μL of supernatant was subjected to LC-MS analysis.
An amino acid forming a small pocket that stores a prenyl group in the crystal structure was selected for the introduction site of the LimF mutation. Specifically, the amino acids at the positions described in the table in the left column of FIG. 19 were replaced with relatively small Ala.
Therefore, substitution of amino acids other than Ala with respect to the W273 position was comprehensively performed (middle column of FIG. 19). As a result, The mutation for W273N and W273T are focused, and in addition to the W273N mutation and the W273T mutation, simultaneous substitution with various amino acids was performed for His at 239, which is an amino acid adjacent to position 273 (right column of FIG. 19).

Molecule: O=C(O)c1ccc(O)cc1 [4-hydroxy-benzoate]
- Kcat (Fnq26): 0.00233 s⁻¹
- Km (Fnq26): 5600 µM

Molecule: CCCC[C@H](NC(C)=O)C(=O)N[C@H]1CC(=O)NCCCC[C@@H](C(=O)O)NC(=O)[C@H](Cc2c[nH]c3ccccc23)NC(=O)[C@H](CCCN=C(N)N)NC(=O)[C@@H](Cc2ccccc2)NC(=O)[C@H](Cc2cnc[nH]2)NC1=O [Bremelanotide, Ac-Nle-Asp(1)-His-D-Phe-Arg-Trp-Lys(1)-OH]
- His-prenylation efficiency (LC/MS) (LimF [1]; 500 μM substrate): 1%

Molecule: CN/C(=N\C#N)NCCSCc1nc[nH]c1C [Cimetidine, cimetidine]
- prenylation of His residue or imidazole C2 carbon by LimF (in words) (LimF [1]): very high efficiency
- His-prenylation efficiency (LC/MS) (LimF [1]; 500 μM substrate): 97%

Molecule: CCNC(=O)[C@@H]1CCCN1C(=O)[C@H](CCCNC(=N)N)NC(=O)[C@H](CC(C)C)NC(=O)[C@@H](Cc1cn(Cc2ccccc2)cn1)NC(=O)[C@H](Cc1ccc(O)cc1)NC(=O)[C@H](CO)NC(=O)[C@H](Cc1c[nH]c2ccccc12)NC(=O)[C@H](Cc1cnc[nH]1)NC(=O)[C@@H]1CCC(=O)N1 [Histrelin, H-Pyr-His-Trp-Ser-Tyr-D-His(1-Bn)-Leu-Arg-Pro-NHEt]
- prenylation of His residue or imidazole C2 carbon by LimF (in words) (LimF [1]): very high efficiency
- His-prenylation efficiency (LC/MS) (LimF [1]; 500 μM substrate): 99%

Molecule: NC(=O)[C@@H]1CCCN1C(=O)[C@H](Cc1cnc[nH]1)NC(=O)[C@@H]1CCC(=O)N1 [TRH]
- His-prenylation efficiency (LC/MS) (LimF [1]; 500 μM substrate): 15%

Molecule: N[C@@H](Cc1ccc(O)cc1)C(=O)N[C@@H](Cc1ccc(O)cc1)C(=O)N[C@@H](Cc1ccc(O)cc1)C(=O)O [YYY] (H-Tyr-Tyr-Tyr-OH)
- Kcat (PagF): 0.0967 s⁻¹
- Km (PagF): 160 µM

Molecule: O=C1C(O)=CC(=O)c2c(O)cc(O)cc21 [flaviolin]
- Kcat (Fnq26): 0.000217 s⁻¹
- Km (Fnq26): 21 µM

Molecule: Aviptadil: synthetic vasoactive intestinal polypeptide (HSDAVFTDNYTRLRKQMAVKKYLNSILN; Aviptadil)
- His-prenylation efficiency (LC/MS) (LimF [1]; 125 μM substrate): about 90%
- His-prenylation efficiency (LC/MS) (LimF [1]; 125 μM substrate, listed as Avipt ?): 90%

Molecule: Cyclo(-Ser-Asn-Leu-Ser-Thr-Asu)-Val-Leu-Gly-Lys-Leu-Ser-Gln-Glu-Leu-His-Lys-Leu-Gln-Thr-Tyr-Pro-Arg-Thr-Asp-Val-Gly-Ala-Gly-Thr-Pro-NH2 [Elcatonin]
- His-prenylation efficiency (LC/MS) (LimF [1]; 125 μM substrate): 5%

Molecule: H-Asp-Arg-Val-Tyr-Ile-His-Pro-Phe-OH [ANGIOTENSIN II]
- His-prenylation efficiency (LC/MS) (LimF [1]; 500 μM substrate): 1%

Molecule: H-Pyr-His-Trp-Ser-Tyr-D-Leu-Leu-Arg-Pro-NHEt [Leoprorelin]
- prenylation of His residue or imidazole C2 carbon by LimF (in words) (LimF [1]): very high efficiency
- His-prenylation efficiency (LC/MS) (LimF [1]; 500 μM substrate): 99%

Molecule: Insulin
- His-prenylation efficiency (LC/MS) (LimF [1]; 500 μM substrate): 5%

Molecule: MSGVDYYNPFAGDDAE
- Kcat (PirF): 0.0183 s⁻¹
- Km (PirF): 118 µM

Molecule: Pramlintide: analog of amylin (KCNTATCATQRLANFLVHSSNNFGPILPPTNVGSNTY; Pramlintide)
- prenylation of His residue or imidazole C2 carbon by LimF (in words) (LimF [1]): very high efficiency
- His-prenylation efficiency (LC/MS) (LimF [1]; 125 μM substrate): 99%

Molecule: Teduglutide (HGDGSFSDEMNTILDNLAARDFINWLIQTKITD; chains of the INN, looked up)
- prenylation of His residue or imidazole C2 carbon by LimF (in words) (LimF [1]): very high efficiency
- His-prenylation efficiency (LC/MS) (LimF [1]; 125 μM substrate): 50%

Molecule: Trp-His-Trp-Leu-Gln-Leu-Lys-Pro-Gly-Gln-Pro-Met-Tyr-OH (WHWLQLKPGQPMY-OH) [α-mating factor, cell signaling peptide for yeast]
- His-prenylation efficiency (LC/MS) (LimF [1]; 500 μM substrate): 39%

Molecule: cyclo[MSGVDYYNP] (head-to-tail cyclized)
- Kcat (PirF): 0.0117 s⁻¹
- Km (PirF): 116 µM

Molecule: tecyclo[DFRGNATYIPC] [teR6-H5A]
- Kcat (LimF [2]): 0.0167 s⁻¹ and 0.0167 ± 0.0017 s⁻¹
- Km (LimF [2]): 7300 ± 1800 µM
- Kcat (LimF [2]; listed as tecyclo[DFRGNATYIPC]): 0.0167 s⁻¹

Molecule: tecyclo[wAVSNLPPRPHITYIEC]S [PBm1]
- prenylation of His residue or imidazole C2 carbon by LimF (in words) (LimF [1]): very high efficiency
- His-prenylation efficiency (LC/MS) (LimF [1]; 500 μM substrate): 99%

B1: wt-LimF: prenyltransferase derived from Limnothrix sp. CACIAM 69d, SEQ ID NO: 1 (protein, listed as Limnothrix sp.)
chain: MKKRKSSKVFKSTIAPEEKLRYIGNHKQAFDIEPLYPLALFEEFVATTGDCIIECSGKIKQDQLYPARIDLQFSDKHHFHNIHTSIDFLKRAASRTDVNLNLDILATFLAGNFDYSKVQNILAGIDLRQNLGESKLKLFIRIGDYPAKMAVAKHLCNITPESEAMLRSDTLHIGFDFYLDGRSAIELYPELKKDEFNHPFIYNQLKTILSPEALKPLPLCNLFGIGLSPANEANVLYYHLENIEDFLSYFPINDTARRVHDFYLQQEGSRRMWVALSESEMKAGRINNVNLYYSKAFTSQNP
modifications: CACIAM 69d
- Final Conversion Efficiency (bcLimE2; prenyl group donor DMAPP): n.r.
- Final Conversion Efficiency (bcLimE2; prenyl group donor FPP): 0.0027%
- Final Conversion Efficiency (bcLimE2; prenyl group donor GGPP): n.r.
- Final Conversion Efficiency (bcLimE2; prenyl group donor GPP): >99%
